# Laboratory results from US20110287026A1, “SIRT4 AND USES THEREOF” (President and Fellows of Harvard College, priority 2008, published 2011).
# What was measured:
# Format in all cases: cell-based, mouse
# [1] = system: fatty acid oxidation in primary hepatocytes; assay: Oxidation of [3H]palmitate in primary hepatocytes
# Procedure: Primary hepatocytes were isolated using a two-step perfusion protocol, based on previous methods (Lin et al., (2004) Cell 119, 121-135.). Briefly, livers were perfused first with Hanks balanced salt solution (HBSS, pH 7.4), containing glucose (1.0 g/l), EDTA (0.2 g/l), HCO3 (2.1 g/l) and KCl (0.4 g/l) for 5 minutes. Next, livers were perfused for 15 min with a collagenase buffer (pH 7.4, Invitrogen). After perfusion, livers were dissected, minced, filtered, and hepatocytes purified using Percoll (Sigma) and plated (500,000 cells per well) on collagen coated 6 well plates (BD Biosciences) in DMEM (4.5 g/l glucose) containing 10% FBS, 2 mM pyruvate, 2% Pen/strep, […] and 100 nM insulin. Typical primary hepatocyte isolations yielded 12-14×10^6 cells per liver with 96%-98% cell viability (assessed by Trypan blue exclusion assay). Two hours after plating, medium was replaced with maintenance medium (DMEM with 0.2% BSA, 2 mM pyruvate, 2% Pen/strep, 0.1 mM dexamethasone and 1 nM insulin). Fatty acid oxidation assays were performed one day after isolation.
# Cells were incubated overnight in culture medium containing 100 μM palmitate (C16:0) and 1 mM carnitine. In the final 2 hours of incubation, cells were pulsed with 1.7 μCi [9,10(n)-^3H]palmitic acid (GE Healthcare), and the medium was collected to analyze the released ^3H2O, formed during cellular oxidation of [^3H]palmitate. In brief, medium was TCA precipitated, supernatants were neutralized with NaOH and loaded onto ion exchange columns packed with DOWEX 1×2-400 resin (Sigma). The radioactive product was eluted with water and quantitated by liquid scintillation counting. Oxidation of [^3H]palmitate was normalized to protein content using Bio-Rad DC protein assay.
# Ultimately, the up-regulation of lipid catabolism gene expression during nutrient deprivation leads to enhanced rates of fatty acid oxidation. […] To test this model, the rates of oxidation of palmitate, a saturated long chain fatty acid, were analyzed in primary MEFs and primary hepatocytes isolated from SIRT4 WT and KO mice. […]
# PPARα target gene Pdk4 = assay: Induction of PPARα target gene Pdk4 in MEFs exposed to WY14643 (quantitative RT-PCR); details: 50 μM WY14643
# Procedure: Mouse embryonic fibroblasts (MEFs) were isolated on embryonic day 12.5-14.5 from heterozygous females that were mated with heterozygous males. Primary MEFs were cultured in DMEM containing 10% FBS and 0.1 mM BME and were used between passages 2 and 5.
# RNA was isolated from frozen liver tissue of overnight fasted mice or from cells using Trizol (Invitrogen) according to the manufacturer's instructions and further purified using RNeasy columns (Qiagen). Amplification and detection of target and reference cDNA samples was performed on a Lightcycler 480 (Roche) using Lightcycler 480 Sybr Green I Mastermix (Roche). A standard curve was generated for all genes using serial dilutions of a pool prepared from all cDNA samples. mRNA levels of target genes were normalized using beta 2 microglobulin (B2m), peptidyl-prolyl isomerase (Ppia) and ribosomal protein 16 (Rps16) as reference genes.
# To determine whether SIRT4 is a bona fide repressor of PPARα in a cell-autonomous manner, the induction of the PPARα target gene Pdk4 was examined in SIRT4^−/− and SIRT4′^+/+ mouse embryonic fibroblast (MEF) cell lines exposed to the PPARα agonist WY14643 (WY), as described above.
# [2] = system: mitochondrial fatty acid oxidation in primary MEFs; assay: Oxidation of [3H]palmitate in primary MEFs; details: SIRT4 KO and WT MEFs (both cell types)
# Procedure: Mouse embryonic fibroblasts (MEFs) were isolated on embryonic day 12.5-14.5 from heterozygous females that were mated with heterozygous males. Primary MEFs were cultured in DMEM containing 10% FBS and 0.1 mM BME and were used between passages 2 and 5. Cells were incubated overnight in culture medium containing 100 μM palmitate (C16:0) and 1 mM carnitine. In the final 2 hours of incubation, cells were pulsed with 1.7 μCi [9,10(n)-^3H]palmitic acid (GE Healthcare), and the medium was collected to analyze the released ^3H2O, formed during cellular oxidation of [^3H]palmitate. In brief, medium was TCA precipitated, supernatants were neutralized with NaOH and loaded onto ion exchange columns packed with DOWEX 1×2-400 resin (Sigma). The radioactive product was eluted with water and quantitated by liquid scintillation counting. Oxidation of [^3H]palmitate was normalized to protein content using Bio-Rad DC protein assay. […] To test this model, the rates of oxidation of palmitate, a saturated long chain fatty acid, were analyzed in primary MEFs and primary hepatocytes isolated from SIRT4 WT and KO mice. The CPT1a inhibitor, etomoxir, (Baht and Saggerson, 1989) was used to specifically block mitochondrial import of fatty acids.
structure (smiles),measurement,setting,value
NC(=O)C1CCCc2c1[nH]c1ccc(Cl)cc21 (stereo not drawn) [Ex 527],level of Fatty Acid Oxidation,[1]; SIRT4 KO hepatocytes,significantly reduced
same,rate of Fatty Acid Oxidation,[1]; WT hepatocytes,did not significantly alter
Cc1cccc(Nc2cc(Cl)nc(SCC(=O)O)n2)c1C [WY14643],stimulation of Pdk4 expression compared with WT cells,PPARα target gene Pdk4; MEFs lacking SIRT4,more than doubled
same,increase in Pdk4 expression,PPARα target gene Pdk4; wild-type MEFs,2 fold
CCOC(=O)[C@@]1(CCCCCCOc2ccc(Cl)cc2)CO1 [etomoxir],fatty acid oxidation ([3H]palmitate),[2],inhibited fatty acid oxidation strongly
same,mitochondrial fatty acid oxidation ([3H]palmitate),[1]; both WT and SIRT4 KO hepatocytes,effectively blocked mitochondrial fatty acid oxidation
